≈ marks a conversion by molar mass, not a printed value.
What was measured:
[1] = test system: Anas platyrhynchos
[2] = test system: Apis mellifera; conditions: acute, duration: 48 hours, mortality
[3] = test system: Canidae; conditions: oral, Dog Other, body weight
[4] = test system: Colinus virginianus; conditions: acute; oral; mortality
[5] = test system: Daphnia magna; conditions: chronic/long-term; duration: 21 days; reproduction
[6] = test system: Hypoaspis aculeifer; conditions: chronic/long-term; duration: 14 days; reproduction
[7] = test system: Lepomis macrochirus; conditions: acute; duration: 96 hours; mortality
[8] = test system: Mus musculus; conditions: acute; oral; mortality
[9] = test system: Oncorhynchus mykiss; conditions: chronic/long-term; duration: 87 days; growth
[10] = test system: Rattus norvegicus
[11] = test system: Tagia sp.; conditions: chronic/long-term; reproduction
[12] = test system: Typhlodromus pyri; experiment: LR50; higher = less toxic; conditions: not reported; mortality

Compound: COc1ccc(-c2ccccc2)cc1NNC(=O)OC(C)C [Bifenazate]
- NOEL ([1]; reproductive, duration: 23 weeks, F): 2.3 mg/kg-day
- LD50 ([1]; short-term, oral, feed, mortality): 106 mg/kg-day
- LD50 ([2]; dermal): 8.5 µg/piece
- LD50 ([2]; oral, unspecified): > 100 µg/piece
- NOAEL ([3]; chronic, duration: 1 years): 1 mg/kg-day
- NOAEL ([3]; subchronic, duration: 90 days): 1 mg/kg-day
- LD50 [4]: 1040 mg/kg-day
- NOEC [5]: 0.15 mg/L
- NOEC [6]: 6.56 mg/kg
- LC50 [7]: 0.58 µg/mL (≈ 1.93 µM)
- LD50 [8]: > 5000 mg/kg-day
- NOEC [9]: 0.017 mg/L
- LD50 ([10]; acute, oral, mortality): > 5000 mg/kg-day
- NOAEL ([10]; chronic, duration: 2 years, hematological): 1 mg/kg-day
- NOAEL ([10]; reproduction developmental, body weight): 10 mg/kg-day
- NOAEL ([10]; reproduction developmental, food consumption): 1.5 mg/kg-day
- NOEC [11]: 9.75 mg/kg
- LR50 [12]: 23.8 g/ha

— EPA's ToxValDB 9.5 (doi:10.2903/j.efsa.2017.4693)
